Reference: US20250025568A1, “COMBINATION OF ANTIBODY-DRUG CONJUGATE AND PARP1 SELECTIVE INHIBITOR” (AstraZeneca UK Limited, priority 2021, published 2025)

Assays:
[1] = system: NCI-N87 xenograft (gastric cancer cell line); assay: Antitumor test (dose titration) in vivo, NCI-N87 xenograft model (Example 6); parameters: species or system Female Nude mice
Protocol: (§1) Female Nude mice (Charles River) aged 5-8 weeks were used, following 7 days acclimatisation before entry into the study. 5×10^6 NCI-N87 tumor cells (gastric cancer cell line) (1:1 in Matrigel) were implanted subcutaneously onto the flank of the female Nude mice. When tumors reached approximately 250 mm^3, similar-sized tumors were randomly assigned to treatment groups as shown in Table 10:
(§2) The dose of compound for each animal was calculated based on the individual body weight on the day of dosing. DS-1062 and AZD5305 were dosed on the same day, with DS-1062 being administered approximately 5 hour post the PO dose of AZD5305. DS-1062 was administered as a single dose at 10 mg/kg on day 1, and AZD5305 was administered at 1, 0.1 or 0.01 mg/kg QD for 21 days. Duration of dosing was for 21 days.

WT DLD-1 = details: 4 day compound dosing; read-out: WT DLD-1 prolif 4 d IC50; cited from earlier work
CTG-3303 TNBC PDX = assay: Antitumor test in vivo, TNBC patient derived xenograft model (Example 5); parameters: species or system Female Nude mice; details: for TGI % day 46: CTG-3303 TNBC PDX; for percentage of mice achieving a complete response (tumor volume <20 mm^3): day 46 post treatment
Source text: Female Nude mice (Charles River) aged 5-8 weeks were used, following 7 days acclimatisation before entry into the study. The human patient-derived xenograft (PDX) model, CTG-3303, was established from fragments of freshly resected tumor of a triple negative breast cancer (TNBC) patient whom relapsed on treatment with PARP inhibitor talazoparib. This PDX was obtained in accordance with appropriate consent procedures. This TNBC PDX model was subcutaneously passaged in vivo as fragments from animal to animal in nude mice. When tumors reached approximately 250 mm^3, similar-sized tumors were randomly assigned to treatment groups as shown in Table 8:
as §2, with “1” for “1, 0.1 or 0.01”
(§3) Tumor growth inhibition (TGI) was calculated as follows:
(§4) where MTV=mean tumor volume.
(§5) Statistical significance was evaluated using one-tailed t-test of (log (relative tumor volume)=log (final vol/start vol)) at the day of final measure, comparing to vehicle control.
In addition, the percentage of mice in each treatment group achieving a complete response (defined as tumor volume <20 mm^3) at day 46 post treatment were calculated and shown in FIG. 19B. Monotherapy with DS-1062 at 10 mg/kg led to 1 out 8 mice (12.5%) achieving a complete response at day 46 post treatment. AZD5305 monotherapy led to 0 out 8 mice (0%) achieving a complete response at day 46 post treatment. Combination treatment of AZD5305 with DS-1062 at 10 mg/kg led to 2 out 8 mice (25%) achieving a complete response at day 46 post treatment and led to higher complete response rates than either respective monotherapy.

CTG-3718 ovarian PDX = assay: Antitumor test in vivo, CTG-3718 xenograft model (Example 8); parameters: species or system nude mice
Source text: The human patient-derived xenograft (PDX) model, CTG-3718, was established from fragments of freshly resected tumor of an ovarian cancer patient who relapsed on treatment with PARP inhibitor talazoparib. This PDX was obtained in accordance with appropriate consent procedures. This ovarian PDX model was subcutaneously passaged in vivo as fragments from animal to animal in nude mice. When tumors reached approximately 250 mm^3, similar-sized tumors were randomly assigned to treatment groups as shown in Table 14: […]

[2] = system: NCI-N87 xenograft (gastric cancer cell line); assay: Antitumor test in vivo, NCI-N87 xenograft model (Example 4); parameters: species or system Female Nude mice
Protocol: as §1, with “6:” for “10:”
as §2, with “1” for “1, 0.1 or 0.01”
as §3, §4, §5

BRCA2 −/− DLD-1 = details: 4 day compound dosing; read-out: BRCA2 −/− DLD-1 prolif 4 d IC50; cited from earlier work
[3] = system: NCI-N87 xenograft (gastric cancer cell line); assay: Antitumor test (dose regimen optimization) in vivo, NCI-N87 xenograft model (Example 7); parameters: species or system Female Nude mice
Protocol: as §1, with “12:” for “10:”
The dose of compound for each animal was calculated based on the individual body weight on the day of dosing. […]

hERG = hERG (Homo sapiens, UniProt Q12809); details: cited from earlier work
hERG, sequence (Q12809 whole entry): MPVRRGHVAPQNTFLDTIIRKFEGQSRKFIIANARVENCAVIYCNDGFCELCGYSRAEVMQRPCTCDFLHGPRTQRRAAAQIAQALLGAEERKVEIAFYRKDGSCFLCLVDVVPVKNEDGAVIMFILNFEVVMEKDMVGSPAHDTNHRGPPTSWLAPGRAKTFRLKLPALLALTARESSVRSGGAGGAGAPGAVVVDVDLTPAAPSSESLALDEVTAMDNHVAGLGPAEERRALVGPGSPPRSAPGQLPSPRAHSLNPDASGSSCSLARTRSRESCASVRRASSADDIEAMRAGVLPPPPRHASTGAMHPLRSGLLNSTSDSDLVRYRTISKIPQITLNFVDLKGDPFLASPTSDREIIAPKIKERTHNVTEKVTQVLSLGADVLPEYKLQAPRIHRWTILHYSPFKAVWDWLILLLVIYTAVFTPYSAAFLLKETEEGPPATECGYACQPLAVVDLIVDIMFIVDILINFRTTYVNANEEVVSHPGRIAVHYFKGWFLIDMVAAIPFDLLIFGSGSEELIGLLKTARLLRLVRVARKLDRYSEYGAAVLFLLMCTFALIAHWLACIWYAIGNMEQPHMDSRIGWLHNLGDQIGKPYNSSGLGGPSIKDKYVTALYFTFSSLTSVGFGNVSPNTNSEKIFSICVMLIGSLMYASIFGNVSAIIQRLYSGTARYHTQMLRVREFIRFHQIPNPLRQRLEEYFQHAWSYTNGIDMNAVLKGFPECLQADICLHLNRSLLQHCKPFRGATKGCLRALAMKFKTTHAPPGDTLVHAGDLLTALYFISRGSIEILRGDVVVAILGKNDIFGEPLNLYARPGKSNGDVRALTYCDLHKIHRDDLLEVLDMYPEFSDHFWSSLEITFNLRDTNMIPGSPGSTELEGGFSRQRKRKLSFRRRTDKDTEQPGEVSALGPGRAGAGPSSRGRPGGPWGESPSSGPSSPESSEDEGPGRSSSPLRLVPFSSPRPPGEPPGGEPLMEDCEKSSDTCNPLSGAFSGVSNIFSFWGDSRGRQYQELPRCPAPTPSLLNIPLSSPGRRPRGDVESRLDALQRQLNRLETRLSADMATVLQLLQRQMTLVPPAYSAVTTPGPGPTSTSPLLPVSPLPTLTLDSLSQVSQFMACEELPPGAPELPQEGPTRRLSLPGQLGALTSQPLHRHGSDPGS

[4] = AZD5305 1 mg/kg PO QD for 21 days, 1 mg/kg
[5] = DS-1062 10 mg/kg IV single dose, 10 mg/kg

CCc1cc2ncc(CN3CCN(c4ccc(C(=O)NC)nc4)CC3)cc2[nH]c1=O [Example 4, 5-[4-[(7-ethyl-6-oxo-5H-1,5-naphthyridin-3-yl)methyl]piperazin-1-yl]-N-methyl-pyridine-2-carboxamide]
TGI % day 49 [1, 4]: 18%
IC50 (WT DLD-1): > 30 µM
TGI % day 46 (CTG-3303 TNBC PDX; [4]): 28%
percentage of mice achieving a complete response (tumor volume <20 mm^3) (CTG-3303 TNBC PDX; AZD5305 1 mg/kg QD): 0%
TGI % day 28 (CTG-3718 ovarian PDX; AZD5305 0.1 mg/kg PO QD (21 days), 0.1 mg/kg): −16%
TGI % day 19 [2, 4]: 22%
IC50 (BRCA2 −/− DLD-1): > 0.017 µM
TGI % day 52 ([3]; AZD5305 1 mg/kg PO QD (21 days), 1 mg/kg): 26%

CCc1cc2ncc(CN3CCN(c4ccc(C(=O)NC)nc4C(F)(F)F)CC3)cc2[nH]c1=O [Example 30, 5-[4-[(7-ethyl-6-oxo-5H-1,5-naphthyridin-3-yl)methyl]piperazin-1-yl]-N-methyl-6 (trifluoromethyl)pyridine-2-carboxamide]
IC50 (WT DLD-1): > 30 µM
IC50 (BRCA2 −/− DLD-1): 0.004 µM
IC50 (hERG): > 40 µM

B1: DS-1062: anti-TROP2 antibody-drug conjugate; exatecan-derivative drug-linker conjugated to the anti-TROP2 antibody via a thioether bond; DAR ~4 (conjugate, chains of the INN, looked up)
VH: QVQLVQSGAEVKKPGASVKVSCKASGYTFTTAGMQWVRQAPGQGLEWMGWINTHSGVPKYAEDFKGRVTISADTSTSTAYLQLSSLKSEDTAVYYCARSGFGSSYWYFDVWGQGTLVTVSS
VL: DIQMTQSPSSLSASVGDRVTITCKASQDVSTAVAWYQQKPGKAPKLLIYSASYRYTGVPSRFSGSGSGTDFTLTISSLQPEDFAVYYCQQHYITPLTFGQGTKLEIK
modifications: exatecan-derivative drug-linker, DAR ~4
TGI % day 49 [1, 5]: 75%
TGI % day 46 (CTG-3303 TNBC PDX; [5]): 88%
percentage of mice achieving a complete response (tumor volume <20 mm^3) (CTG-3303 TNBC PDX; DS-1062 10 mg/kg): 12.5%
TGI % day 28 (CTG-3718 ovarian PDX; [5]): 72%
TGI % day 19 [2, 5]: 82%
TGI % day 52 [3, 5]: 84%
